Measured values reported in patent publication US6867186B2, “Cell-permeable protein inhibitors of calpain” (New England Medical Center Hospital, priority 1997, dated 2005).
Read-outs that look alike come from different tables or passages of the source. Peptide text beside a SMILES is read from it. * marks the point of attachment. Cbz = O=C(OCc1ccccc1)*; CHN2 = [N-]=[N+]=C*

Columns and labels:
calpain = assay: Ionophore-dependent calpain degradation of ABP and talin in platelets; assay type: cell-based; conditions: 5, 8, or 10 minutes A23187
Procedure: To investigate whether calpastat inhibits calpain activity in platelets, the ionophore-dependent proteolysis of actin binding protein (ABP; about 280 kDa) and talin (about 240 kDa), both of which are substrates of both μ- and m-calpains, was examined as follows.
Platelets were pre-incubated with ZLLYCHN2, DMSO (solvent for ZLLY-CHN2), calpastat, or HEPES buffer (buffer for calpastat), and then treated with or without ionophore A23187 for 5, 8, or 10 minutes. The platelets were then gel-purified as described above. Whole cell lysates were prepared and fractionated by SDS polyacrylamide gel electrophoresis.

platelets [1] = assay: cells; assay type: cell-based; conditions: for effect on platelet spreading / IC50: spreading on glass; for IC50: NI=no inhibition, read-out: IC50, inhibition of platelet spreading
Procedure: Platelet activation on surfaces can be inhibited by […] or […] fusion proteins. […] The cellular area of spread platelets was determined by computer assisted image analysis using NIH Image 1.61. […] Percent inhibition of spreading was calculated from the increase in mean cell area for untreated and treated samples vs. unspread DMSO controls.

gel filtered platelets = assay: Thrombin-induced platelet aggregation (aggregometer); assay type: cell-based, human; conditions: for IC50: initial rate during first 15 seconds, NI=no inhibition, peptidyl inhibitors 10 min pre-incubation, read-out: IC50, initial rate of thrombin-induced platelet aggregation; for effect on platelet aggregation: thrombin or SFLLR induced
Procedure: In one series of experiments, platelets were purified from […] on a SEPHAROSE 2B column in PIPES buffered saline containing glucose, pre-incubated with 45 μM calpastat or S-TIPPEY-ala for 30 minutes at 37° C., and placed in a cuvette in a BIODATA aggregometer. The aggregometer measures turbidity of the solution by nephlometry (light scatter). Aggregation was induced with thrombin (0.1 to 1 unit/ml) or the thrombin receptor agonist peptide SFLLR (SEQ ID NO:5). […] In contrast, S-TIPPEY-ala had no activity. A version of S-TIPPEYIN lacking the signal sequence similarly had no activity.
In another series of experiments, gel filtered platelets were obtained and tested as follows. Blood from healthy, aspirin-free volunteers was collected by venipuncture into 4% sodium citrate (9:1 v/v, final concentration 0.4%) and centrifuged at 200×g for 20 minutes to obtain platelet rich plasma (PRP). Following incubation with apyrase (4 units/ml for 5 minutes at room temperature), platelets were purified from PRP by gel-filtration at room temperature using a Sepharose 2B column equilibrated in PIPES buffer (25 mM PIPES pH 6.8, 140 mM NaCl, 4 mM KCl, and 0.1% glucose) (Hsu-Lin, et al., J. Biol. Chem. 259:9121-9126, 1984). Final gel filtered platelet concentrations were about 1.5×10^8 cells/ml.
Gel filtered platelets (250 μl aliquots at 1.6×10^8/ml) were incubated with the indicated concentration of calpastat or mutant calpastat-ala for either 20 or 30 minutes at 37° C. in the absence of calcium and stirring. To test peptidyl calpain inhibitors, platelets were preincubated with the indicated concentration of calpeptin, MDL, E64d, DMSO (vehicle control) or NH4Cl (cathepsin control) for 10 minutes at 37° C. Following incubation, platelets were recalcified (CaCl2, 2 mM) and stimulated with 0.05-1.0 unit/ml thrombin, while being stirred (1400 rpm) at 37° C. The sensitivity of platelet preparations to thrombin decreased over the course of a given experiment. The thrombin concentration used was to elicit robust aggregation and varied between 0.05 and 1.0 U/ml. Aggregation was measured using a Bio-Data lumi-aggregometer. Percent inhibition of aggregation was measured at 4 minutes following the onset of aggregation. The initial rate of aggregation during the first 15 seconds for treated vs. untreated samples was used to calculate the IC50 for each inhibitor.

U1 cells = assay: U1 cell viability (Trypan-blue exclusion); assay type: cell-based, human; conditions: for U1 cell viability: 96 hr
Procedure: (§1) U1 is a human promonocytic cell line that is chronically infected with HIV-1 and that constitutively expresses low levels of HIV-1. […] In the present experiment, 1×10^6 cells/ml were treated with various dosages of calpastat and incubated for one hour at 37° C. After incubation, various concentrations of Tpg were added to the calpastat-treated cells and aliquoted into a 24-well plate. To observe the stimulation of HIV-1 activity by Tpg, equivalent numbers of cells were treated with Tpg alone. The cells were then incubated at 37° C. for up to four days, and supernatants from the cell culture were collected each day to measure HIV-1 activity. The viability of cells treated with both Tpg and calpastat were determined each day by Trypan-blue exclusion test. The HIV-1 activity in the collected supernatants was determined by measuring the HIV-1 p24 core antigen protein by ELISA (Dupont Medical Products, Boston, Mass.) according to the manufacturer's instructions.
(§2) In another series of experiments, U1 cells, which are latently infected with HIV-1 provirus, were plated at 10^6 cells/well in 1 ml of medium and treated with varying concentrations of either calpastat (FIG. 7E) or calpeptin (benzyloxycarbonyl-leucyl-norleucinal) (FIG. 7F) for 45 minutes before addition of thapsigargin (4 nM final concentration). The viability of U1 monocytes was 90% at 48 hours of thapsigargin (4 nM) treatment, in the presence or absence of calpain inhibitors. After 48 hours of stimulation, HIV-1 p24 antigen levels were determined in 200 μl of tissue culture supernatant, using a p24 ELISA (DuPont). All assays were performed on triplicate cultures. Mean values and standard deviations are shown for each concentration of inhibitor (FIGS. 7E-7F).

HIV-1 = conditions: 24 h
Procedure: as §1
as §2, with “The viability of U1 monocytes was 90% at 48 hours of thapsigargin (4 nM) treatment, in the presence or absence of calpain inhibitors.” left out, “cultures.” for “cultures. Mean values and standard deviations are shown for each concentration of inhibitor (FIGS. 7E-7F).”

platelets [2] = assay: cells
Procedure: To determine whether S-TIPPEYIN could inhibit α-granule secretion in platelets, surface expression of P-selectin, which indicates α-granule secretion, was induced with the thrombin peptide SFLLR (SEQ ID NO:5) and analyzed by flow cytometry using an antibody against P-selectin. Blood from healthy volunteers was collected into sodium citrate (4% w/v) and centrifuged at 200×g for 10 minutes to prepare platelet-rich plasma (PRP), from which platelets were subsequently purified by gel filtration using a SEPHAROSE 2B column in PIPES buffer. Twenty μl of platelets (approximately 2×10^8 platelets/ml) were aliquoted into eppendorf tubes and one μl of S-TIPPEYIN, TIPPEYIN (lacking the signal peptide sequence), or S-TIPPEY-ala was added to achieve final concentrations of 6.25, 12.5, 25, 50, or 100 μM. The platelets were then incubated for 2 hours at 37° C. and subsequently exposed to either 1 μl PBS (unstimulated) or 1 μl of SFLLR (SEQ ID NO:5; stimulated) at the indicated concentration. After 30 seconds, a 7.5 μl aliquot was transferred to an eppendorf tube containing non-immune serum having antibodies that were conjugated to phycoerythrin. Following a 20 minute incubation at room temperature, the mixture was diluted with 1 ml of 2% paraformaldehyde and incubated at 4° C. for two hours. Antibody binding to platelet surface P-selectin was quantified using a FACSCAN flow cytometer (Becton Dickerson, San Jose, Calif.). Results were reported as the geometric mean of the relative fluorescence.
Platelets were pre-incubated with increasing concentrations of calpeptin, MDL, E64d, or DMSO (vehicle control) for ten minutes prior to stimulation with SFLLR.

[3] = molecular target: T1, purified µ-calpain (porcine erythrocyte) (porcine, UniProt P35750 1-714; P04574 1-266, limits assumed); assay: cell-based or functional assay
T1 sequence (looked up) 1: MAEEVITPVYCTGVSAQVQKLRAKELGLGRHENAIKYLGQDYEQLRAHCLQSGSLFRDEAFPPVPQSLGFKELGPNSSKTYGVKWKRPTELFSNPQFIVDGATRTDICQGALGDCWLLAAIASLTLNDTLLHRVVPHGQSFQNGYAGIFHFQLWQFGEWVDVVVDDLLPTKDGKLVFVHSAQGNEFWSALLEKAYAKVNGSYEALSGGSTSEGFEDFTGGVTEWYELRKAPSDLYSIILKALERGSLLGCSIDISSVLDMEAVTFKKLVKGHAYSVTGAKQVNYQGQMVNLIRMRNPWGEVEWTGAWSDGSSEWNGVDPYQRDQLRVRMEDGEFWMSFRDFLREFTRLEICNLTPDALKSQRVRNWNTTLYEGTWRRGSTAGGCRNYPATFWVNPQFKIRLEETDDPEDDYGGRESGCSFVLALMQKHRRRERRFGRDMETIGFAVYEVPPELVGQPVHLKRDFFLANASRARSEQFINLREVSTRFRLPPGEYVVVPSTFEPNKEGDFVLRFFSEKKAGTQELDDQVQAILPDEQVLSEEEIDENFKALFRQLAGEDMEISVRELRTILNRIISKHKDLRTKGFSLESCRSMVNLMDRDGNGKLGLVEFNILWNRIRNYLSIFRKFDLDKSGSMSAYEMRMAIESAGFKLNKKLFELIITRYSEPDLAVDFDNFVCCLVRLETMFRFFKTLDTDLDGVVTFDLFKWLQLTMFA
T1 sequence (looked up) 2: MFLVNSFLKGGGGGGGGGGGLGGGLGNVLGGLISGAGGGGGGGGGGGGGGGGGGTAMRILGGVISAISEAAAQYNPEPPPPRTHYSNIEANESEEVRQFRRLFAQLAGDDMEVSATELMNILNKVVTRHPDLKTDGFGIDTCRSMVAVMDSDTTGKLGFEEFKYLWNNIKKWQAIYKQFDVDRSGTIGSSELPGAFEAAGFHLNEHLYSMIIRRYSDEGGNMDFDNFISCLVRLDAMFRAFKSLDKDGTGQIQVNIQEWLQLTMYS

`CC(C)C[C@H](NC(=O)OCc1ccccc1)C(=O)N[C@@H](CC(C)C)C(=O)N[C@@H](Cc1ccc(O)cc1)C(=O)C=[N+]=[N-]` [ZLLYCHN2, reference compound] (Cbz-Leu-Leu-Tyr-CHN2) was tested, and the “A23187-dependent calpain degradation of ABP and talin in platelets” value (calpain) was “inhibited” and the “effect on platelet spreading” value (platelets [1]) was “no inhibitory activity”.

For `CCOC(=O)[C@H]1O[C@@H]1C(=O)N[C@@H](CC(C)C)C(=O)NCCC(C)C` [E64d], the “platelets round and unspread” value (platelets [1]; pretreated at 250 μM) was “About 20%”, the IC50 (platelets [1]) was over 250 µM and the IC50 (gel filtered platelets) was 340 µM.

In the case of `Cl.N` [NH4Cl], the “effect on platelet spreading” value (platelets [1]) is reported as “no effect” and the “effect on platelet aggregation” value (gel filtered platelets) is reported as “does not affect platelet aggregation”.

For `CC(C)[C@H](NC(=O)OCc1ccccc1)C(=O)N[C@H](C=O)Cc1ccccc1` [MDL] (Cbz-Val-Phe-aldehyde), the “platelets round and unspread” value (platelets [1]; pre-treated at 200 μM) was 30%, the IC50 (platelets [1]) was 200 µM and the IC50 (gel filtered platelets) was 240 µM.

For `C/C=C(/C)C(=O)O[C@H]1C(C)=C2[C@H]([C@@H]1OC(=O)CCCCCCC)[C@@](C)(OC(C)=O)C[C@H](OC(=O)CCC)[C@@]1(O)[C@H]2OC(=O)[C@@]1(C)O` [thapsigargin], the U1 cell viability (U1 cells; 4.0 nM Tpg) was “about 50%”, the “viability of U1 monocytes” value (U1 cells; 4 nM thapsigargin, 48 hours, presence or absence of calpain inhibitors) was 90% and the U1 cell viability (U1 cells; 50 nM Tpg) was about 5%. The “induction of virus (HIV-1)” value (HIV-1; 1 nM Tpg) was 1.37 fold and the “induction of virus (HIV-1)” value (HIV-1; 5 nM Tpg) was 20 fold.

For “EKLGERDDTIPPEYRELLEKKTGV [Calpastatin 24 mer]”, the “effect on SFLLR-induced P-selectin surface expression” value (platelets [2]; pre-incubation, SFLLR stimulation) was “little effect”, the “effect on platelet aggregation” value (gel filtered platelets) was “no measurable effect” and the “effect on platelet aggregation” value (gel filtered platelets; listed as S-TIPPEYIN lacking the signal sequence) was “no activity”.

With `CCCC[C@@H](C=O)NC(=O)[C@H](CC(C)C)NC(=O)OCc1ccccc1` [Calpeptin, benzyloxycarbonyl-leucyl-norleucinal] the IC50 (platelets [2]; Homo sapiens, Platelet, read-out: IC50 / half-maximal inhibition of P-selectin surface expression) was 200 to 300 µM, the IC50 (platelets [1]; Platelet) was 200 µM and the “platelets round and unspread” value (platelets [1]; pre-treated at 200 μM) was 30%. For the same molecule, the IC50 (gel filtered platelets; Homo sapiens, Platelet) was 150 µM.

For H-AAVALLPAVLLALLAPEKLGERDDTIPPEYRELLEKKTGV-OH [calpastat], the “inhibition of calpain cleavage of [14C]-methylcasein in a cell-free system (2.7 µM µ-calpain), IC50” value [3] was 0.5 µM and the “inhibition of µ-calpain cleavage of suc-LLVY-AMC (fluorometric calpain assay, 70 nM enzyme), IC50” value [3] was 0.05 µM.
